The values below come from patent publication US20180092894A1, “TREATMENT OF EOSINOPHILIC INFLAMMATORY DISEASE” (Northwestern University, priority 2016, published 2018).

Holding throughout (assay type): cell-based, human
For test [1], the system named is IL-13-induced eotaxin-3 protein secretion in BEAS-2B cells. The test is described as follows: IL-13-induced eotaxin-3 protein secretion in BEAS-2Bs (ELISA). The following applies: for effect on IL-13-induced eotaxin-3 protein secretion: 2 h pretreatment (1-50 μM), IL-13 5 ng/ml 48 h. How it is done: (§1) BEAS-2B, a human bronchial epithelial cell line transformed with a hybrid adenovirus 12-simian virus 40 was obtained from ATCC (CRL-9609, Manassas, Va.). Primary HNECs were collected by epithelial scraping of IT and NP and cultured. For cytokine (Peprotech, Rocky Hill, N.J.) stimulation, submerged cultured cells were treated with 1-100 ng/ml IL-13, 10 ng/ml IFN-γ, 100 ng/ml TNF or 50 ng/ml IL-17 for 6 h or 48 h. To study the effects of PPIs (Sigma-Aldrich, St Louis, Mo.) on cytokine-induced chemokines, cells were pretreated for 2 h with acid-activated omeprazole (0.1-50 μM) or other PPIs: lansoprazole, rabeprazole, pantoprazole, and esomeprazole (1-50 μM) prior to stimulation with 5 ng/ml IL-13. Additionally, SCH-28080 (1-50 μM; Sigma-Aldrich) was used with the same protocol. In experiments altering extracellular K^+ concentration ([K^+]e), modified Ringer's solution that contained different contents of K^+ (0-11.2 mM KCl, Table 4) was used as culture media. For mRNA stability assessment, actinomycin D (3 μg/ml, Sigma-Aldrich) was used and eotaxin-3 mRNA was measured using real-time PCR. Supernatants, whole cell lysates, and total RNAs were harvested for further analysis.
(§2) Eotaxin-1, eotaxin-2, and eotaxin-3 protein concentrations in supernatants were determined with the appropriate ELISA kits.
In general terms: An ELISA detects its analyte on a solid surface through an enzyme-linked reagent.

In test [2] the test system is IL-13-induced intracellular alkalinization in BEAS-2B cells (ngH,K-ATPase). The test is described as follows: Intracellular pH (pHi) imaging, pHrodo Green, IL-13-stimulated BEAS-2Bs. The following applies: up to 1 h after IL-13, spectrofluorometry. How it is done: The pH-sensitive dye, pHrodo® Green AM intracellular pH indicator (Life Technologies) that increases its fluorescence with decreasing pHi was used (ref 39; incorporated by reference in its entirety). Cells cultured in glass bottom microwell dishes (MatTek, Ashland, Mass.) were pre-treated with omeprazole or vehicle prior to 6 h IL-13 stimulation. Then cells were incubated with dye (5 μM) with live cell imaging solution (Life Technologies) at 37° C. for 30 minutes per manufacturer's instructions. Spinning disk confocal microscopy for live cells imaging was performed with Andor XDi Revolution (Andor Technologies, Belfast, UK). Fluorescence intensity was measured in 150 cells using Image J software (National Institutes of Health, Bethesda, Md.). For kinetic experiments, fluorescence intensity of cells cultured in 96-well plates with omeprazole, SCH-28080 or matched vehicle was measured at various times before and after IL-13 stimulation up to 1 h using the SpectraMax® Gemini EM Microplate Spectrofluorometer (Molecular devices, Sunnyvale, Calif.) at 485/538 nm (excitation/emission).

For test [3], the system named is IFN-γ-induced CXCL-10 (IP-10). Briefly: IFN-γ-induced CXCL10 (IP-10) mRNA expression in BEAS-2B cells. The following applies: PPI 5 μM 2 h, IFN-γ 10 ng/ml 6 h. How it is done: (§3) FIG. 9. […] Cells were pretreated with various PPIs for 2 h and stimulated for 6 h with IFN-γ (10 ng/ml), TNF (100 ng/ml) or IL-17 (50 ng/ml). IFN-γ-induced CXCL10 (IP-10), TNF-α-induced eotaxin-1, and IL-17-induced CXCL1 mRNA expression levels in total RNA from cells were measured by using real-time PCR. Data represent means±SEM compared with vehicle-treated/cytokine-stimulated cells. O, omeprazole; L, lansoprazole; R, rabeprazole; P, pantoprazole; E, esomeprazole all at 5 μM
as §1
(§4) mRNA levels of eotaxin-1, eotaxin-2, eotaxin-3, CXCL1, CXCL10, ATP12A, and ATP4A in total RNAs isolated from cells were measured using quantitative real-time PCR. Western blots were performed to assess total signal transducer and activator of transcription 6 (STATE), phosphorylated-STAT6 (pSTAT6) and ATP12A protein in whole cell lysates (ref. 38; incorporated by reference in its entirety).

The next test relates to TNF-α-induced eotaxin-1. The test is described as follows: TNF-α-induced eotaxin-1 mRNA expression in BEAS-2B cells. As to conditions: PPI 5 μM 2 h, TNF 100 ng/ml 6 h. How it is done:
as §3, §1, §4

A further test deals with IL-17-induced CXCL-1. The test is described as follows: IL-17-induced CXCL1 mRNA expression in BEAS-2B cells. As to conditions: PPI 5 μM 2 h, IL-17 50 ng/ml 6 h. How it is done:
as §3, §1, §4

The test system of test [4] is IL-13-induced eotaxin-3 protein secretion in HNECs. Briefly: IL-13-induced eotaxin-3 protein secretion in HNECs (ELISA). How it is done:
as §1, §2

Another test concerns pSTAT6. Briefly: IL-13-induced STAT6 phosphorylation in BEAS-2Bs (Western blot). How it is done:
FIGS. 6A-6D. Effects of omeprazole on IL-13-induced STAT6 phosphorylation and eotaxin-3 mRNA stability. FIG. 6A, In IL-13-stimulated BEAS-2Bs with omeprazole or vehicle, pSTAT6 and total STAT6 protein expression were measured by using Western blots. FIG. 6B, Semi-quantitative densitometry data for A (Mean±SEM, n=3-6). FIG. 6C, Experimental protocol for eotaxin-3 mRNA stability assessment using real-time PCR. FIG. 6D, Relative eotaxin-3 mRNA expression levels following treatment with actinomycin D and/or omeprazole. mRNA levels of eotaxin-1, eotaxin-2, eotaxin-3, CXCL1, CXCL10, ATP12A, and ATP4A in total RNAs isolated from cells were measured using quantitative real-time PCR. Western blots were performed to assess total signal transducer and activator of transcription 6 (STATE), phosphorylated-STAT6 (pSTAT6) and ATP12A protein in whole cell lysates (ref. 38; incorporated by reference in its entirety).
For orientation: In western blotting, separated proteins are transferred to a membrane and probed.

[5] abbreviates: 5 μM omeprazole, 2 h pretreatment, IL-13 48 h.

`Cc1nc2c(OCc3ccccc3)cccn2c1CC#N` [SCH-28080]: the “effect on IL-13-induced eotaxin-3 protein secretion” value (“effect” below) in test [1] is given as “significantly inhibited”. The “IL-13-induced intracellular alkalinization, kinetic studies” value in test [2] was “blunted”.
For `COc1ccc2nc([S@@+]([O-])Cc3ncc(C)c(OC)c3C)[nH]c2c1` [esomeprazole, S-5-methoxy-2-{(4-methoxy-3,5 dimethylpyridin-2-yl)methylsufinyl]-3H-benzoimidazole], in test [1], the “effect” value is listed as “dose-dependent inhibitory effects”. Also, the “IFN-γ-induced CXCL-10 (IP-10) mRNA expression” value in test [3] is reported as “did not inhibit”. The “TNF-α-induced eotaxin-1 mRNA expression” value in the test with TNF-α-induced eotaxin-1 is given as “did not inhibit”. Further, in the test on IL-17-induced CXCL-1, the “IL-17-induced CXCL-1 mRNA expression” value is recorded as “did not inhibit”.
In the case of `Cc1c(OCC(F)(F)F)ccnc1C[S+]([O-])c1nc2ccccc2[nH]1` (stereo not shown) [lansoprazole], the “effect” value in test [1] is “dose-dependent inhibitory effects”. In addition, in test [3], the “IFN-γ-induced CXCL-10 (IP-10) mRNA expression” value was “did not inhibit”. The “TNF-α-induced eotaxin-1 mRNA expression” value in the test on TNF-α-induced eotaxin-1 is “did not inhibit”. Besides, in the test with IL-17-induced CXCL-1, the “IL-17-induced CXCL-1 mRNA expression” value was “did not inhibit”.
`COc1ccc2[nH]c([S+]([O-])Cc3ncc(C)c(OC)c3C)nc2c1` (stereo not shown) [omeprazole, 5- or 6-methoxy-2-{[(4-methoxy-3,5-dimethylpyridin-2-yl)methyl]sulfinyl}-1H-ben-zimidazole]: the “lowest concentration significantly inhibiting IL-13-induced eotaxin-3 protein secretion” value in test [1] was 5 µM; in test [4] it was 1 µM. For the same molecule, the results for the “IL-13-induced eotaxin-3 protein secretion was reduced” value in test [1] (setting [5]) and in test [4] (setting [5]) were 57.9% and 37.1%, respectively. Moreover, the “IFN-γ-induced CXCL-10 (IP-10) mRNA expression” value in test [3] is reported as “did not inhibit”. In addition, in the test with TNF-α-induced eotaxin-1, the “TNF-α-induced eotaxin-1 mRNA expression” value was “did not inhibit”. Also, in the test on IL-17-induced CXCL-1, the “IL-17-induced CXCL-1 mRNA expression” value is “did not inhibit”. The “IL-13-induced pSTAT6” value in the test on pSTAT6 was “not significantly inhibited”.
As to `COc1ccnc(C[S+]([O-])c2nc3ccc(OC(F)F)cc3[nH]2)c1OC` (stereo not shown) [pantoprazole], the “IFN-γ-induced CXCL-10 (IP-10) mRNA expression” value in test [3] is reported as “did not inhibit”. For the same molecule, the “TNF-α-induced eotaxin-1 mRNA expression” value with TNF-α-induced eotaxin-1 is “did not inhibit”. Moreover, the “IL-17-induced CXCL-1 mRNA expression” value in the test with IL-17-induced CXCL-1 was “did not inhibit”.
For the molecule `COCCCOc1ccnc(C[S+]([O-])c2nc3ccccc3[nH]2)c1C` (stereo not shown) [rabeprazole, 2-([4-(3-methoxypropoxy)-3-methylpyridin-2-yl]methylsulfinyl)-1H-benzo(d)-imidazole], the “effect” value in test [1] is “dose-dependent inhibitory effects”. For the same molecule, in test [3], the “IFN-γ-induced CXCL-10 (IP-10) mRNA expression” value is “did not inhibit”. Also, in the test with TNF-α-induced eotaxin-1, the “TNF-α-induced eotaxin-1 mRNA expression” value is “did not inhibit”. Also, in the test on IL-17-induced CXCL-1, the “IL-17-induced CXCL-1 mRNA expression” value is reported as “did not inhibit”.
